These results are taken from patent publication US8815880B2, “Crystal of tricyclic pyrazolopyrimidine derivative” (Daiichi Sankyo Company, Limited, priority 2010, dated 2014).

Data set [1] can be described thus: Purity test and stability test (accelerated test, HPLC related substances). In kind it is physicochemical. The settings on record: monohydrochloride. Here is the method: Purity Test and Stability Test
• Condition 1: 40° C., humidity: 75% • Condition 2: 60° C. (without humidity control)
Samples under the aforementioned accelerated test conditions were measured by high performance liquid chromatography as described below.
An analyte for the accelerated test was dissolved in the sample-dissolved solution to prepare an approximately 0.5 g/L solution.
• Column: YMC-Pack Pro C18RS, 3.0 mm ID×150 mm, particle diameter: 3 μm • Column temperature: approximately 40° C. • Gradient conditions:
45 to 55 minutes, mobile phase A: 0/mobile phase B: 100 • Flow rate: 0.7 ml/min • Measurement range: 0 to 55 minutes • Detection wavelength: 240 nm • Amount of sample solution injected: 5 μl <Calculation> • 1) The sample solution was injected into the column, so as to obtain the peak area (A) of each related substance and the peak area (T) of compound (1). • 2) The sample-dissolved solution was injected into the column, so as to obtain the peak area (B) of each blank. • 3) The amount [%] of each related substance was calculated using the formula: The amount [%] of each related substance=100×(A−B)÷T <Measurement Results>

For data set [2], the system named is human lung cancer cell line NCI-H460. In words: Cell growth inhibition assay (MTT), NCI-H460. It is filed as cell-based. The settings on record: NCI-H460 cells, 72 hours, read-out: GI50 value (50% growth inhibitory concentration). On the procedure: (§1) A cell growth inhibition assay was performed using two types of cells (human breast cancer cell line SK-BR-3 and human lung cancer cell line NCI-H460).
(§2) Cells of each type were suspended in a medium and seeded into a 96-well multi-well plate at 2000 cells/150 μL/well in the case of SK-BR-3 and at 500 cells/150 μL/well in the case of NCI-H460. Compound (1) was dissolved in DMSO, and this was diluted with medium to prepare a sample solution (DMSO concentration: 0.5% or less). On the day following the seeding, 50 μL of DMSO-containing medium to which the test compound was not added (hereinafter called DMSO diluted solution; DMSO concentration: 0.5% or less) or 50 μL of the sample solution was further added to the cells. An MTT assay was performed immediately after and 72 hours after adding the sample solution or the DMSO diluted solution to the cells. The MTT assay was performed as follows.
(§3) 5 mg/mL of an MTT (3-(4,5-dimethylthiazol-2-yl)-2,5-diphenyltetrazolium bromide) solution was added at 20 μL per well. Thereafter, the plate was incubated at 37° C. in 5% CO2 for four hours. The plate was centrifuged at 1200 rpm for five minutes, and then the culture supernatant was removed by suction using a dispenser. DMSO was added at 150 μL per well, and the generated formazan was dissolved. […] The absorbance of each well was measured using a plate reader at an OD of 540 nm with a reference of 660 nm. […]

Data set [3] relates to human breast cancer cell line SK-BR-3. In words: Cell growth inhibition assay (MTT), SK-BR-3. It is filed as cell-based. The settings on record: SK-BR-3 cells, 72 hours, read-out: GI50 value (50% growth inhibitory concentration). On the procedure:
as §1, §2, §3

Setting [4] is: Accelerated condition 1: 40° C., humidity 75%, 2 weeks.
The mark [5] stands for this setting: Accelerated condition 1: 40° C., humidity 75%, 4 weeks.
Setting [6] is: Accelerated condition 2: 60° C. (without humidity control), 2 weeks.
Where [7] appears, read: Accelerated condition 2: 60° C. (without humidity control), 4 weeks.
The mark [8] stands for this setting: Purity test (Initial), before accelerated test.

Turning to `CNC(=O)CC1=Cc2nn(Cc3ncc(C)c(OC)c3Cl)c3nc(N)nc(c23)SC1.Cl` [Example 28, 2-{4-Amino-2-[(3-chloro-4-methoxy-5-methylpyridin-2-yl)methyl]-2,7-dihydro-6-thia-1,2,3,5-tetraazabenzo[cd]azulen-8-yl}-N-methylacetamide monohydrochloride], the “Impurity (rrt 0.43) amount” value in data set [1] (setting [4]) stood at 0.41%; in data set [1] (setting [5]), 0.44%; in data set [1] (setting [6]) it was 0.44%; in data set [1] (setting [7]), 0.45%; in data set [1] (setting [8]), 0.37%. Besides, the “Impurity: Total of unspecified” value was found to be 1.14% in data set [1] (setting [4]); 1.12% in data set [1] (setting [5]); 1.25% in data set [1] (setting [6]); 1.18% in data set [1] (setting [7]); 1.07% in data set [1] (setting [8]).
With `CNC(=O)CC1=Cc2nn(Cc3ncc(C)c(OC)c3Cl)c3nc(N)nc(c23)SC1` [Compound (1), 2-{4-amino-2-[(3-chloro-4-methoxy-5-methylpyridin-2-yl)methyl]-2,7-dihydro-6-thia-1,2,3,5-tetraazabenzo[cd]azulen-8-yl}-N-methylacetamide], the GI50 in data set [2] turned out to be 26 nM; in data set [3] it was 13 nM.
Turning to `CNC(=O)CC1=Cc2nn(Cc3ncc(C)c(OC)c3Cl)c3nc(N)nc(c23)SC1.Cl` [Example 4, 2-{4-Amino-2-[(3-chloro-4-methoxy-5-methylpyridin-2-yl)methyl]-2,7-dihydro-6-thia-1,2,3,5-tetraazabenzo[cd]azulen-8-yl}-N-methylacetamide monohydrochloride], the “Impurity (rrt 0.43) amount” value came out at 0.94% in data set [1] (setting [4]); 1.04% in data set [1] (setting [5]); 1.09% in data set [1] (setting [6]); 1.21% in data set [1] (setting [7]); 0.75% in data set [1] (setting [8]). Besides, the “Impurity: Total of unspecified” value in data set [1] (setting [4]) is 1.83%; in data set [1] (setting [5]), 2.08%; in data set [1] (setting [6]), 2.31%; in data set [1] (setting [7]), 2.42%; in data set [1] (setting [8]), 1.64%.
Consider `CNC(=O)CC1=Cc2nn(Cc3ncc(C)c(OC)c3Cl)c3nc(N)nc(c23)SC1.Cl` [Example 12, 2-{4-Amino-2-[(3-chloro-4-methoxy-5-methylpyridin-2-yl)methyl]-2,7-dihydro-6-thia-1,2,3,5-tetraazabenzo[cd]azulen-8-yl}-N-methylacetamide monohydrochloride], for which the “Impurity (rrt 0.43) amount” value amounted to 0.30% in data set [1] (setting [4]); 0.33% in data set [1] (setting [5]); 0.32% in data set [1] (setting [6]); 0.33% in data set [1] (setting [7]); 0.27% in data set [1] (setting [8]). For the same molecule, the “Impurity: Total of unspecified” value in data set [1] (setting [4]) is 1.08%; in data set [1] (setting [5]), 1.09%; in data set [1] (setting [6]), 1.20%; in data set [1] (setting [7]), 1.20%; in data set [1] (setting [8]) it was 1.00%.
